In one assay the test system is AMD RPE. Kind of assay: Cell viability of AMD RPE under oxidative stress. The format is cell-based, human. Particulars: FIG. 16E-G. As for the experimental part: RPE were cultured at 80-90% confluency in 96-well plates, at 37° C. with 5% O2 and 5% CO2. Oxidative stress was induced with different concentrations of H2O2 ranging from 0-10 mM for 24 or 48 hrs, followed by cell viability measurements. Cell viability was measured following a 30 min incubation with the PestoBlue Reagent (Life Technologies) of RPE monolayers cultured on 96-well plates, 6 wells used for each sample. Fluorescence measurements were performed using an Ultra384 plate reader with 535 nm excitation and 612 nm emission wavelengths.

The subject of another assay is APOJ. Kind of assay: APOJ expression in retina of mice fed high fat diet containing compound. The format is in vivo. Particulars: genotype (WT or HET) not stated; telmisartan 0.001% in high fat diet, 11 weeks; FIG. 23A. As for the experimental part: (§1) Quantitative Real-Time Polymerase Chain Reaction Analyses. Total RNA was extracted with the RNeasy kit (Qiagen), treated with RNase-free DNase I (Qiagen), and reverse transcribed with oligo-dT using the SuperScript III cDNA synthesis kit (Invitrogen). Quantitative PCR was performed with the QuantiTect SYBR Green PCR Kit (Qiagen). Specific primers for each gene were designed with the PrimerQuest software (Integrated DNA Technologies), and the cDNA sequences of each gene (GenBank) were used to produce 100-250 bp PCR amplicons that span one or more exon/intron boundaries.
(§2) The HET mice described in Example 2 were administered various compounds to determine the effects of these compounds on the development of AMD. In the High Fat Diet (HFD) experiments, 5 wild type (WT) mice, 5 PGC-1α+/−mice, 5 PGC-1α−/−mice at 2 months old with C57BL/6 background were fed with regular diet (RD) or high fat diet for 16 weeks. […]
(§3) To test the effects of telmisartan, fenofibrate and UPF 1069 on mice, 5 wild type (WT) mice, 5 PGC-1α+/−mice, 5 PGC-1α−/−mice at 2 months old were administrated with RD, HFD, or HFD (Testdiet, 5015) containing one of the three compounds. […] 11 weeks after beginning of administration of the compounds, the mice were sacrificed, the body weight was measured, the eyes were enucleated, with the retinas being extracted and processed for RNA isolation. […]

The test system of assay [1] is PGC-1α. Kind of assay: PGC-1α gene expression in mice fed high fat diet containing compound. Particulars: compound in high fat diet (telmisartan, UPF 0.001%; fenofibrate 0.1%), 11 weeks, FIG. 24. The format is in vivo. The procedure: as §1, §2, §3
The test system of another assay is APOB. Kind of assay: APOB expression in retina of mice fed high fat diet containing compound. The format is in vivo. Particulars: PGC-1α+/− (HET) mice; compound in high fat diet (telmisartan, UPF 0.001%; fenofibrate 0.1%), 11 weeks; FIG. 20. The procedure: as §1, §2, §3
The subject of the next assay is APP. Kind of assay: APP expression in retina of mice fed high fat diet containing compound. Particulars: compound in high fat diet (telmisartan, UPF 0.001%; fenofibrate 0.1%), 11 weeks, FIG. 21. In kind it is in vivo. As for the experimental part:
as §1, §2, §3

Assay [2] deals with Acyl-CoA Dehydrogenase (ACADM). Kind of assay: Acyl-CoA Dehydrogenase (ACADM) expression in RPE. The note with it: FIG. 16A-C. In kind it is cell-based, human. An excerpt:
(§4) FIGS. 1-3 show various representations of an in vitro disease model of AMD. A total of 10 eyes from 5 organ donors clinically diagnosed with dry AMD and 10 eyes from 5 clinically normal donors were purchased from Lions Medical Eye Bank. RPE were isolated according to established protocols (Maminishkis et al., 2006) and cultured in Epithelial Cell Media (EpiCM, ScienCell) under controlled oxygen (5%) and CO2 (5%) conditions. Studies have shown that low (physiological) oxygen concentration promotes RPE growth (Knorr et al., 1993) and better protects from ROS-induced damage in vitro. RPE were then purified with Magnetic-Activated Cell Sorting (MACS) by positive selection for epithelial cells using anti-BEST1 antibody (Abcam) and anti-E-cadherin (Miltenyi Biotech); and by negative selection using a fibroblast-specific antibody (Miltenyi Biotech) to remove fibroblasts. The purity of the sorted cells was confirmed by immunostaining with anti-ZO-1 and anti-BEST1, and Real-Time PCR for RPE specific genes. The RPE cells were grown in Epithelial Cell Media (EpiCM, ScienCell) at 37° C., with 5% O2 and 5% CO2. […] Skin fibroblasts from a dry AMD patient were used to generate iPSC-RPE. Genotyping of the donors and the patient is represented in FIG. 3.
(§5) Quantitative Real-Time Polymerase Chain Reaction Analyses. […] Quantitative PCR was performed with the QuantiTect SYBR Green PCR Kit (Qiagen). […]

The next assay has as its system AMPK. Kind of assay: AMPK phosphorylation in RPE. The format is cell-based, human. The note with it: FIG. 16D.
Description: as §4, with “Genotyping of the donors and the patient is represented in FIG. 3.” left out
Immunoblot analysis. […] Protein concentrations were measured by Bradford assay (Bio-Rad). Protein samples were analyzed using the NuPAGE electrophoresis and XCell Western blot system (Invitrogen). […]

The next assay concerns APOE. Kind of assay: APOE expression in retina of mice fed high fat diet containing compound. In kind it is in vivo. Particulars: compound in high fat diet (telmisartan, UPF 0.001%; fenofibrate 0.1%), 11 weeks, FIG. 22. The procedure: as §1, §2, §3
Assay [3] has as its system PGC-1α. Kind of assay: PGC-1α gene expression in retinal pigment epithelium (RPE). Particulars: FIG. 16A-C. The format is cell-based, human.
Description: as §4, §5

Turning to `O=C(O)c1cc(C(=O)O)c2c(n1)C(=O)C(=O)c1cc(C(=O)O)[nH]c1-2` [PQQ, pyrroloquinoline quinone], the “cell viability under oxidative stress” value in the assay with AMD RPE is “increasing”.
In the case of `CCCc1nc2c(C)cc(-c3nc4ccccc4n3C)cc2n1Cc1ccc(-c2ccccc2C(=O)O)cc1` [telmisartan], the APOJ levels result with APOJ was “did not reduce”. In addition, the “cell viability under oxidative stress” value with AMD RPE is reported as “increasing”. In addition, the PGC-1α expression result in the assay on PGC-1α [1] (PGC-1α+/− (HET) mice) is recorded as “significantly Increase”; with PGC-1α [1] (WT mice), “significantly increased”; with PGC-1α [3] (AMD RPE), “increasing”; in the assay on PGC-1α [3] (normal (control) RPE), “increasing”. Besides, the “APOB levels in the retina” value in the assay on APOB is listed as “significantly reduce”. In addition, the “APP levels in the retina” value with APP (PGC-1α+/− (HET) mice) is reported as “unable to decrease”; in the assay on APP (WT mice), “significant increase”. The “Acyl-CoA Dehydrogenase (ACADM) expression” value in assay [2] (AMD RPE) and in [2] (normal (control) RPE) was “increasing” each time. Besides, the AMPK phosphorylation entry with AMPK (AMD RPE) and in the assay with AMPK (normal (control) RPE) was “inducing” in each case. The “APOE levels in the retina” value with APOE (PGC-1α+/− (HET) mice) and in the assay on APOE (WT mice) was “significantly reduce” throughout.
